According to the supplement of paper PMC10307832:

Assays:
Test in all cases: relative viability (nuclei count vs DMSO), 5 days (fraction); higher = more cells survive
[1] = compound: COc1cc(-c2nn([C@H]3CC[C@H](N4CCN(C(C)=O)CC4)CC3)c3ncnc(N)c23)ccc1NC(=O)c1cc2ccccc2n1C + CS(=O)(=O)N1CCN(Cc2cc3nc(-c4cccc5[nH]ncc45)nc(N4CCOCC4)c3s2)CC1 [Pictilisib] (partner 1 µM)
Method in brief: (§1)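 Values are medians from duplicate plates. Each reflects relative viability, defined as the nuclei count of treated wells over that of vehicle wells. Lung cancer cell lines in 1536-well plates were pin-tool dosed one day after seeding with one drug alone or with a fixed anchor-drug dose plus five library-drug doses (not always all listed) in √10 steps, then fixed, stained and imaged at 4× after 5 days.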

Midostaurin + Foretinib = compound: CO[C@@H]1[C@H](N(C)C(=O)c2ccccc2)C[C@H]2O[C@]1(C)n1c3ccccc3c3c4c(c5c6ccccc6n2c5c31)C(=O)NC4 [Midostaurin] + COc1cc2c(Oc3ccc(NC(=O)C4(C(=O)Nc5ccc(F)cc5)CC4)cc3F)ccnc2cc1OCCCN1CCOCC1 [Foretinib] (partner 0.25 µM)
Method in brief: as §1

Midostaurin + Crizotinib = compound: CO[C@@H]1[C@H](N(C)C(=O)c2ccccc2)C[C@H]2O[C@]1(C)n1c3ccccc3c3c4c(c5c6ccccc6n2c5c31)C(=O)NC4 [Midostaurin] + C[C@@H](Oc1cc(-c2cnn(C3CCNCC3)c2)cnc1N)c1c(Cl)ccc(F)c1Cl [Crizotinib] (partner 1 µM)
Method in brief: as §1

[2] = compound: COc1cc(-c2nn([C@H]3CC[C@H](N4CCN(C(C)=O)CC4)CC3)c3ncnc(N)c23)ccc1NC(=O)c1cc2ccccc2n1C + CC(=O)Nc1cccc(-n2c(=O)n(C3CC3)c(=O)c3c(Nc4ccc(I)cc4F)n(C)c(=O)c(C)c32)c1 [Trametinib] (partner 0.02 µM)
Method in brief: as §1

[3] = compound: COc1cc(-c2nn([C@H]3CC[C@H](N4CCN(C(C)=O)CC4)CC3)c3ncnc(N)c23)ccc1NC(=O)c1cc2ccccc2n1C + Nc1nc2[nH]cc(CCc3ccc(C(=O)N[C@@H](CCC(=O)O)C(=O)O)cc3)c2c(=O)[nH]1 [Pemetrexed] (partner 0.2 µM)
Method in brief: as §1

Cell Line | relative viability ([1]; first compound 0.0128 µM) | relative viability ([1]; first compound 0.04048 µM) | relative viability ([1]; first compound 0.128 µM) | relative viability ([1]; first compound 1.28 µM) | relative viability (Midostaurin + Foretinib; first compound 0.01 µM) | relative viability (Midostaurin + Foretinib; first compound 0.03162 µM) | relative viability (Midostaurin + Foretinib; first compound 0.1 µM) | relative viability (Midostaurin + Foretinib; first compound 0.3162 µM) | relative viability (Midostaurin + Crizotinib; first compound 0.01 µM) | relative viability (Midostaurin + Crizotinib; first compound 0.03162 µM) | relative viability (Midostaurin + Crizotinib; first compound 0.1 µM) | relative viability (Midostaurin + Crizotinib; first compound 0.3162 µM) | relative viability ([2]; first compound 0.0128 µM) | relative viability ([2]; first compound 0.04048 µM) | relative viability ([2]; first compound 0.128 µM) | relative viability ([2]; first compound 1.28 µM) | relative viability ([3]; first compound 0.0128 µM) | relative viability ([3]; first compound 0.04048 µM) | relative viability ([3]; first compound 0.128 µM) | relative viability ([3]; first compound 1.28 µM)
NCI-H2170 | 0.297 | 0.353 | 0.334 | 0.248 | 1.05 | 0.951 | 0.477 | 0.735 | 1.18 | 1.24 | 1.15 | 1.29 | 0.992 | 0.797 | 0.919 | 0.876 | 0.267 | 0.275 | 0.296 | 0.253
NCI-H2347 | 0.754 | 0.579 | 0.772 | 0.414 | 1.2 | 1.13 | 0.841 | 1.5 | 0.678 | 0.684 | 0.802 | 0.808 | 0.292 | 0.236 | 0.263 | 0.225 | 0.45 | 0.447 | 0.431 | 0.382
NCI-H1993 | 0.845 | 0.899 | 0.826 | 0.775 | 0.863 | 0.761 | 0.765 | 0.935 | 0.879 | 0.762 | 1.06 | 0.893 | 0.504 | 0.489 | 0.562 | 0.481 | 0.684 | 0.543 | 0.598 | 0.599
NCI-H322M | 0.521 | 0.449 | 0.51 | 0.463 | 1.04 | 0.923 | 1.07 | 1.14 | 0.982 | 0.948 | 0.912 | 0.905 | 0.453 | 0.489 | 0.491 | 0.463 | 0.603 | 0.643 | 0.604 | 0.538
NCI-H838 | 0.403 | 0.397 | 0.38 | 0.338 | 1.05 | 0.939 | 0.759 | 0.497 | 0.877 | 0.634 | 0.812 | 0.524 | 0.5 | 0.479 | 0.506 | 0.403 | 0.254 | 0.262 | 0.224 | 0.221
HARA | 0.454 | 0.395 | 0.349 | 0.362 | 0.904 | 0.887 | 0.91 | 0.891 | 0.902 | 0.977 | 0.86 | 0.958 | 0.617 | 0.273 | 0.56 | 0.418 | 0.213 | 0.233 | 0.216 | 0.184
NCI-H2087 | 1.06 | 0.399 | 0.842 | 0.753 | 1.15 | 0.942 | 1.21 | 0.775 | 0.794 | 0.655 | 0.835 | 0.656 | 0.209 | – | 0.207 | 0.17 | 0.601 | – | 0.697 | 0.707
NCI-H1437 | 0.413 | 0.514 | 0.406 | 0.314 | 1.26 | 1.09 | 1.22 | 1.22 | 0.935 | 0.87 | 0.878 | 1 | 0.527 | 0.609 | 0.492 | 0.33 | 0.351 | 0.339 | 0.287 | 0.303
ChaGo-K-1 | 0.66 | 0.669 | 0.587 | 0.644 | 0.888 | 0.99 | 0.785 | 0.946 | 1.09 | 1.15 | 1.05 | 1.03 | 0.872 | 0.904 | 0.722 | 0.68 | 0.258 | 0.26 | 0.252 | 0.237
NCI-H650 | 0.944 | 0.96 | 0.944 | 0.866 | 0.959 | 0.95 | 1.01 | 0.767 | 0.574 | 0.748 | 0.773 | 0.444 | 0.993 | 0.501 | 1.15 | 0.879 | 1.09 | 1.05 | 1.02 | 0.897
COR-L23 | 0.919 | 0.666 | 0.801 | 0.839 | 1.03 | 0.954 | 0.9 | 0.892 | 0.653 | 0.633 | 0.541 | 0.464 | 0.585 | 0.25 | 0.564 | 0.592 | 0.193 | 0.206 | 0.189 | 0.204
COR-L 105 | 0.417 | 0.427 | 0.321 | 0.243 | 1.04 | 1.04 | 0.909 | 1.09 | 0.835 | 0.738 | 0.692 | 0.698 | 0.481 | 0.489 | 0.412 | 0.298 | 1.08 | 1.11 | 1.1 | 0.836
LK-2 | 0.557 | 0.543 | 0.55 | 0.375 | 1.19 | 1.36 | 0.955 | 1.13 | 0.243 | 0.235 | 0.233 | 0.17 | 0.978 | 0.399 | 0.577 | 0.47 | 0.298 | 0.248 | 0.27 | 0.133
201T | 0.729 | 0.639 | 0.571 | 0.432 | 1.15 | 0.988 | 1.14 | 1.17 | 1.07 | 1.01 | 1.01 | 1.05 | 0.743 | 0.727 | 0.695 | 0.585 | 0.394 | 0.288 | 0.316 | 0.309
